Source: PubChem BioAssay AID1963854 (Molecular Pharmacology Branch, DTP, NCI, 2024)

System: 186277-243-T-J2-PDC complex spheroid viability
Test: Anticancer human tumor 186277-243-T-J2-PDC patient-derived colon adenocarcinoma cell line growth inhibition [POLQ]
Conditions: for IC50: curve of first compound; for viability, T/C: stronger effect = lower value
Procedure, shortened: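 Patient-derived tumour cells were co-cultured with HUVEC and mesenchymal stem cells as multicellular spheroids at 37 °C. They were treated with POLQ inhibitors (novobiocin, ART-558, RP6685) alone or combined with other agents. Top concentrations were at or near clinical Cmax (otherwise 10 microM; SN-38 at 1 microM), decreasing in half-log steps.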

[1] = second compound 0.0316 µM, first compound 0.0316 µM
[2] = second compound 0.0316 µM, first compound 0.1 µM
[3] = second compound 0.0316 µM, first compound 0.316 µM
[4] = second compound 0.0316 µM, first compound 1 µM
[5] = second compound 0.0316 µM, first compound 3.16 µM
[6] = second compound 0.0316 µM, first compound 10 µM
[7] = second compound 0.1 µM, first compound 0.0316 µM
[8] = second compound 0.1 µM, first compound 0.1 µM
[9] = second compound 0.1 µM, first compound 0.316 µM
[10] = second compound 0.1 µM, first compound 1 µM
[11] = second compound 0.1 µM, first compound 3.16 µM
[12] = second compound 0.1 µM, first compound 10 µM
[13] = second compound 0.316 µM, first compound 0.0316 µM
[14] = second compound 0.316 µM, first compound 0.1 µM
[15] = second compound 0.316 µM, first compound 0.316 µM
[16] = second compound 0.316 µM, first compound 1 µM
[17] = second compound 0.316 µM, first compound 3.16 µM
[18] = second compound 0.316 µM, first compound 10 µM
[19] = second compound 1 µM, first compound 0.0316 µM
[20] = second compound 1 µM, first compound 0.1 µM
[21] = second compound 1 µM, first compound 0.316 µM
[22] = second compound 1 µM, first compound 1 µM
[23] = second compound 1 µM, first compound 3.16 µM
[24] = second compound 1 µM, first compound 10 µM
[25] = second compound 3.16 µM, first compound 0.0316 µM
[26] = second compound 3.16 µM, first compound 0.1 µM
[27] = second compound 3.16 µM, first compound 0.316 µM
[28] = second compound 3.16 µM, first compound 1 µM
[29] = second compound 3.16 µM, first compound 3.16 µM
[30] = second compound 3.16 µM, first compound 10 µM
[31] = second compound 10 µM, first compound 0.0316 µM
[32] = second compound 10 µM, first compound 0.1 µM
[33] = second compound 10 µM, first compound 0.316 µM
[34] = second compound 10 µM, first compound 1 µM
[35] = second compound 10 µM, first compound 3.16 µM
[36] = second compound 10 µM, first compound 10 µM
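Further: spheroids exposed to compounds for seven days.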
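Wherever viability, T/C is given: 100% = DMSO vehicle control viability.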

Question: For `C=CC(=O)N1CCN(c2nc(=O)n(-c3c(C)ccnc3C(C)C)c3nc(-c4c(O)cccc4F)c(F)cc23)C(C)C1` (stereo unspecified) + Nc1ccc(C#CCN(C(=O)Cc2ncc(C(F)(F)F)cc2C(F)(F)F)c2ccc(F)cc2)nn1, which IC50 (second compound 0.0316 µM) is on record?
Answer: The IC50 was over 10 µM.

Question: What about the IC50 (second compound 0.1 µM) of the same compound?
Answer: Its IC50 is over 10 µM.

Question: What about the IC50 (second compound 0.316 µM) of the same compound?
Answer: The IC50 was over 10 µM.

Question: And the IC50 (second compound 1 µM)?
Answer: Its IC50 is over 10 µM.

Question: What about the IC50 (second compound 3.16 µM) of the same compound?
Answer: Its IC50 is over 10 µM.

Question: What about the IC50 (second compound 10 µM) of the same compound?
Answer: Its IC50 is over 10 µM.

Question: And the viability, T/C [1]?
Answer: The viability, T/C was 98.7%.

Question: What about the viability, T/C [2] of the same compound?
Answer: The viability, T/C was 84.2%.

Question: And the viability, T/C [3]?
Answer: Its viability, T/C is 96.2%.

Question: And the viability, T/C [4]?
Answer: Its viability, T/C is 83.5%.

Question: And the viability, T/C [5]?
Answer: Its viability, T/C is 115%.

Question: What about the viability, T/C [6] of the same compound?
Answer: The viability, T/C was 101%.

Question: And the viability, T/C [7]?
Answer: The viability, T/C was 93.1%.

Question: What about the viability, T/C [8] of the same compound?
Answer: The viability, T/C was 94.5%.

Question: What about the viability, T/C [9] of the same compound?
Answer: Its viability, T/C is 102%.

Question: And the viability, T/C [10]?
Answer: Its viability, T/C is 103%.

Question: And the viability, T/C [11]?
Answer: Its viability, T/C is 95.1%.

Question: What about the viability, T/C [12] of the same compound?
Answer: Its viability, T/C is 112%.

Question: What about the viability, T/C [13] of the same compound?
Answer: The viability, T/C was 91%.

Question: And the viability, T/C [14]?
Answer: Its viability, T/C is 106%.

Question: And the viability, T/C [15]?
Answer: Its viability, T/C is 100%.

Question: What about the viability, T/C [16] of the same compound?
Answer: The viability, T/C was 96.1%.

Question: And the viability, T/C [17]?
Answer: Its viability, T/C is 92.6%.

Question: What about the viability, T/C [18] of the same compound?
Answer: Its viability, T/C is 100%.

Question: And the viability, T/C [19]?
Answer: Its viability, T/C is 91.8%.

Question: And the viability, T/C [20]?
Answer: The viability, T/C was 101%.

Question: And the viability, T/C [21]?
Answer: The viability, T/C was 90%.

Question: And the viability, T/C [22]?
Answer: The viability, T/C was 87.1%.

Question: What about the viability, T/C [23] of the same compound?
Answer: Its viability, T/C is 96%.

Question: And the viability, T/C [24]?
Answer: Its viability, T/C is 104%.

Question: What about the viability, T/C [25] of the same compound?
Answer: Its viability, T/C is 97.6%.

Question: What about the viability, T/C [26] of the same compound?
Answer: The viability, T/C was 92.3%.

Question: What about the viability, T/C [27] of the same compound?
Answer: The viability, T/C was 97.7%.

Question: What about the viability, T/C [28] of the same compound?
Answer: Its viability, T/C is 102%.

Question: What about the viability, T/C [29] of the same compound?
Answer: Its viability, T/C is 99.3%.

Question: And the viability, T/C [30]?
Answer: The viability, T/C was 101%.

Question: And the viability, T/C [31]?
Answer: The viability, T/C was 112%.

Question: And the viability, T/C [32]?
Answer: The viability, T/C was 99.9%.

Question: What about the viability, T/C [33] of the same compound?
Answer: Its viability, T/C is 107%.

Question: And the viability, T/C [34]?
Answer: The viability, T/C was 101%.

Question: And the viability, T/C [35]?
Answer: The viability, T/C was 95.9%.

Question: And the viability, T/C [36]?
Answer: Its viability, T/C is 105%.

Question: With `CC(C)n1c(=O)n(C)c2cnc3cc(F)c(-c4ccc(OCCCN5CCCCC5)nc4)cc3c21` + Nc1ccc(C#CCN(C(=O)Cc2ncc(C(F)(F)F)cc2C(F)(F)F)c2ccc(F)cc2)nn1 as the compound, how does the IC50 (second compound 0.0316 µM) read?
Answer: Its IC50 is over 10 µM.

Question: What about the IC50 (second compound 0.1 µM) of the same compound?
Answer: Its IC50 is over 10 µM.

Question: What about the IC50 (second compound 0.316 µM) of the same compound?
Answer: Its IC50 is over 10 µM.

Question: And the IC50 (second compound 1 µM)?
Answer: The IC50 was over 10 µM.

Question: And the IC50 (second compound 3.16 µM)?
Answer: The IC50 was over 10 µM.

Question: And the IC50 (second compound 10 µM)?
Answer: The IC50 was over 10 µM.

Question: And the viability, T/C [1]?
Answer: Its viability, T/C is 92.8%.

Question: And the viability, T/C [2]?
Answer: Its viability, T/C is 94%.

Question: And the viability, T/C [3]?
Answer: The viability, T/C was 98.2%.

Question: What about the viability, T/C [4] of the same compound?
Answer: Its viability, T/C is 95.6%.

Question: And the viability, T/C [5]?
Answer: The viability, T/C was 105%.

Question: What about the viability, T/C [6] of the same compound?
Answer: The viability, T/C was 108%.

Question: What about the viability, T/C [7] of the same compound?
Answer: Its viability, T/C is 95.3%.

Question: What about the viability, T/C [8] of the same compound?
Answer: The viability, T/C was 112%.

Question: And the viability, T/C [9]?
Answer: The viability, T/C was 104%.

Question: And the viability, T/C [10]?
Answer: The viability, T/C was 102%.

Question: And the viability, T/C [11]?
Answer: The viability, T/C was 98.2%.

Question: And the viability, T/C [12]?
Answer: The viability, T/C was 105%.

Question: And the viability, T/C [13]?
Answer: Its viability, T/C is 92.7%.

Question: What about the viability, T/C [14] of the same compound?
Answer: The viability, T/C was 90.4%.

Question: What about the viability, T/C [15] of the same compound?
Answer: The viability, T/C was 127%.

Question: And the viability, T/C [16]?
Answer: Its viability, T/C is 102%.

Question: And the viability, T/C [17]?
Answer: The viability, T/C was 114%.

Question: And the viability, T/C [18]?
Answer: The viability, T/C was 109%.

Question: What about the viability, T/C [19] of the same compound?
Answer: The viability, T/C was 98.8%.

Question: And the viability, T/C [20]?
Answer: Its viability, T/C is 112%.

Question: And the viability, T/C [21]?
Answer: Its viability, T/C is 114%.

Question: And the viability, T/C [22]?
Answer: Its viability, T/C is 99.1%.

Question: And the viability, T/C [23]?
Answer: The viability, T/C was 113%.

Question: What about the viability, T/C [24] of the same compound?
Answer: The viability, T/C was 113%.

Question: What about the viability, T/C [25] of the same compound?
Answer: Its viability, T/C is 91.7%.

Question: And the viability, T/C [26]?
Answer: The viability, T/C was 98.3%.

Question: What about the viability, T/C [27] of the same compound?
Answer: Its viability, T/C is 109%.

Question: And the viability, T/C [28]?
Answer: Its viability, T/C is 102%.

Question: What about the viability, T/C [29] of the same compound?
Answer: The viability, T/C was 119%.

Question: What about the viability, T/C [30] of the same compound?
Answer: Its viability, T/C is 105%.

Question: And the viability, T/C [31]?
Answer: Its viability, T/C is 85.7%.

Question: What about the viability, T/C [32] of the same compound?
Answer: Its viability, T/C is 95.4%.

Question: What about the viability, T/C [33] of the same compound?
Answer: The viability, T/C was 98.7%.

Question: And the viability, T/C [34]?
Answer: Its viability, T/C is 91.8%.

Question: And the viability, T/C [35]?
Answer: Its viability, T/C is 105%.

Question: And the viability, T/C [36]?
Answer: Its viability, T/C is 102%.

Question: What does the source list for `CC1COCCN1c1cc(C2(O)CC3CCC(C2)O3)c2cnn(-c3ccn[nH]3)c2n1` (stereo unspecified) + Nc1ccc(C#CCN(C(=O)Cc2ncc(C(F)(F)F)cc2C(F)(F)F)c2ccc(F)cc2)nn1?
Answer: IC50 (second compound 0.0316 µM): 0.0671 µM; IC50 (second compound 0.1 µM): 0.069 µM; IC50 (second compound 0.316 µM): 0.0713 µM; IC50 (second compound 1 µM): 0.0664 µM; IC50 (second compound 3.16 µM): 0.0644 µM; IC50 (second compound 10 µM): 0.0552 µM; viability, T/C [1]: 107%; viability, T/C [2]: 19.5%; viability, T/C [3]: 9.32%; viability, T/C [4]: 6.59%; viability, T/C [5]: 9.6%; viability, T/C [6]: 7.56%; viability, T/C [7]: 113%; viability, T/C [8]: 20.2%; viability, T/C [9]: 8.44%; viability, T/C [10]: 6.39%; viability, T/C [11]: 8.6%; viability, T/C [12]: 8.62%; viability, T/C [13]: 116%; viability, T/C [14]: 22.6%; viability, T/C [15]: 8.74%; viability, T/C [16]: 6.2%; viability, T/C [17]: 8.36%; viability, T/C [18]: 8.22%; viability, T/C [19]: 109%; viability, T/C [20]: 17.5%; viability, T/C [21]: 8.98%; viability, T/C [22]: 6.1%; viability, T/C [23]: 8.12%; viability, T/C [24]: 7.01%; viability, T/C [25]: 102%; viability, T/C [26]: 17.9%; viability, T/C [27]: 8.53%; viability, T/C [28]: 7.23%; viability, T/C [29]: 8.02%; viability, T/C [30]: 9.12%; viability, T/C [31]: 85.1%; viability, T/C [32]: 12.7%; viability, T/C [33]: 8.17%; viability, T/C [34]: 5.8%; viability, T/C [35]: 8.58%; viability, T/C [36]: 6.5%
